# Laboratory results reported in patent publication US7338950B2, “Amide compounds as ion channel ligands and uses thereof” (Renovis, Inc., priority 2003, dated 2008).
# System: VR1 receptor (293 cells expressing capsaicin-insensitive VR1 receptor variants)
# Test: High throughput screening of VR1 antagonists using a calcium imaging assay (Fura2, pH 5.1 stimulus);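 note: Fura2 ratiometric fluorescence read every 4 s over 3 min, response taken as peak ratio minus baseline before pre-treatment, compound pre-treatment preceding acid challenge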
# Conditions: 1 uM compound; inhibition of calcium ion influx
# Source text: A dual wavelength ratiometric dye, Fura2, was used as an indicator of relative levels of calcium ions in a 96 well format using a bench top scanning fluorometer with integrated fluidics and temperature control (Flex Station, Molecular Devices).
# A dual wavelength ratiometric dye, Fura2, was used as an indicator of relative levels of [Ca2+] in a 96 well format using a bench top scanning fluorometer with integrated fluidics and temperature control (Flex Station, Molecular Devices).
# 293 cells were grown on PDL coated 96-well black-walled plates, in the presence of a DMEM medium containing 5% Penstrep, 5% Glutamax, 200 ug/mL Hygromycin, 5 μg/mL Blasticide and 10% heat inactivated FBS. Prior to assay, the cells were loaded with 5 μg/mL Fura2 in normal saline solution at 37° C. for 40 minutes. Cells were then washed with normal saline to remove the dye.
# The assay consists of two stages; a pre-treatment phase followed by a treatment phase.
# 50 μl of a compound solution was added to the cells (Pre-treatment). Immediately following, 50 μl of the test compound in a saline solution at pH 5.1 was added. […] Changes in wavelength measurements were made throughout the course of the experiment in 4 second intervals over a period of 3 minutes. Responses were measured as peak fluorescence ratio after test compound addition minus baseline fluorescence ratio prior to pre-treatment and were calculated using SoftMaxPro softwareData were expressed as percentage inhibition calculated using Excel as follows:
row,Structure (SMILES),% Inhibition @ 1 uM
1,O=C(Nc1ccc(N2CCOCC2)c(Cl)c1)c1ccc(-c2ncccc2Cl)c(F)c1 [Compound 1200],++++ (compound exhibited 75% or greater inhibition of calcium ion influx induced by capsaicin stimulation)
2,CN1CCCc2ccc(NC(=O)c3ccc(-c4ncccc4Cl)c(F)c3)cc21 [Compound 1203],+ (compound exhibited 0-25% inhibition of calcium ion influx induced by capsaicin stimulation)
3,COc1cc(C(=O)NC(C)(C)C)ccc1-c1ncccc1Cl [Compound 1204],+ (compound exhibited 0-25% inhibition of calcium ion influx induced by capsaicin stimulation)
4,COc1cc(C(=O)Nc2ccccc2)ccc1-c1ncccc1Cl [Compound 1206],+ (compound exhibited 0-25% inhibition of calcium ion influx induced by capsaicin stimulation)
5,COc1ccc(NC(=O)c2ccc(-c3ncccc3Cl)c(OC)c2)cc1 [Compound 1207],+ (compound exhibited 0-25% inhibition of calcium ion influx induced by capsaicin stimulation)
6,COc1cc(C(=O)Nc2ccccc2C#N)ccc1-c1ncccc1Cl [Compound 1209],+ (compound exhibited 0-25% inhibition of calcium ion influx induced by capsaicin stimulation)
7,COc1cc(C(=O)Nc2cccc(Cl)c2)ccc1-c1ncccc1Cl [Compound 1210],+ (compound exhibited 0-25% inhibition of calcium ion influx induced by capsaicin stimulation)
8,COc1ccccc1NC(=O)c1ccc(-c2ncccc2Cl)c(OC)c1 [Compound 1211],++ (compound exhibited 25-50% inhibition of calcium ion influx induced by capsaicin stimulation)
9,CCCc1ccccc1NC(=O)c1ccc(-c2ncccc2Cl)c(OC)c1 [Compound 1212],++ (compound exhibited 25-50% inhibition of calcium ion influx induced by capsaicin stimulation)
10,COc1cccc(NC(=O)c2ccc(-c3ncccc3Cl)c(OC)c2)c1 [Compound 1213],++ (compound exhibited 25-50% inhibition of calcium ion influx induced by capsaicin stimulation)
11,COc1cc(C(=O)Nc2cccc(Cl)c2Cl)ccc1-c1ncccc1Cl [Compound 1216],++++ (compound exhibited 75% or greater inhibition of calcium ion influx induced by capsaicin stimulation)
12,COc1cc(C(=O)Nc2cccc(C#N)c2)ccc1-c1ncccc1Cl [Compound 1218],++++ (compound exhibited 75% or greater inhibition of calcium ion influx induced by capsaicin stimulation)
13,CCCCc1ccc(NC(=O)c2ccc(-c3ncccc3Cl)c(OC)c2)cc1 [Compound 1221],++ (compound exhibited 25-50% inhibition of calcium ion influx induced by capsaicin stimulation)
14,COc1cc(C(=O)Nc2ccc(C)cc2C)ccc1-c1ncccc1Cl [Compound 1223],++++ (compound exhibited 75% or greater inhibition of calcium ion influx induced by capsaicin stimulation)
15,COc1cc(C(=O)Nc2ccc(F)cc2[N+](=O)[O-])ccc1-c1ncccc1Cl [Compound 1227],++++ (compound exhibited 75% or greater inhibition of calcium ion influx induced by capsaicin stimulation)
16,COc1ccc(NC(=O)c2ccc(-c3ncccc3Cl)c(OC)c2)cc1Cl [Compound 1229],+++ (compound exhibited 50-75% inhibition of calcium ion influx induced by capsaicin stimulation)
17,COc1cc(C(=O)Nc2ccc(C(F)(F)F)cc2)ccc1-c1ncccc1Cl [Compound 1230],++ (compound exhibited 25-50% inhibition of calcium ion influx induced by capsaicin stimulation)

row,Structure (SMILES),% Inhibition @ 1 uM
1,COc1cc(C(=O)Nc2ccc(Cl)c(C(F)(F)F)c2)ccc1-c1ncccc1Cl [Compound 1231],+ (compound exhibited 0-25% inhibition of calcium ion influx induced by capsaicin stimulation)
2,COc1cc(C(=O)Nc2cc(C)cc(C)n2)ccc1-c1ncccc1Cl [Compound 1234],+ (compound exhibited 0-25% inhibition of calcium ion influx induced by capsaicin stimulation)
3,COc1cc(C(=O)Nc2ccncc2)ccc1-c1ncccc1Cl [Compound 1235],++++ (compound exhibited 75% or greater inhibition of calcium ion influx induced by capsaicin stimulation)
4,COc1cc(C(=O)Nc2cccnc2)ccc1-c1ncccc1Cl [Compound 1236],+ (compound exhibited 0-25% inhibition of calcium ion influx induced by capsaicin stimulation)
5,COc1cc(C(=O)Nc2cc(C)ccn2)ccc1-c1ncccc1Cl [Compound 1240],++++ (compound exhibited 75% or greater inhibition of calcium ion influx induced by capsaicin stimulation)
6,COc1cc(C(=O)Nc2ccncn2)ccc1-c1ncccc1Cl [Compound 1242],++ (compound exhibited 25-50% inhibition of calcium ion influx induced by capsaicin stimulation)
7,COc1cc(C(=O)Nc2ccc(Br)cn2)ccc1-c1ncccc1Cl [Compound 1243],+ (compound exhibited 0-25% inhibition of calcium ion influx induced by capsaicin stimulation)
8,COc1ccc(NC(=O)c2ccc(-c3ncccc3Cl)c(OC)c2)cn1 [Compound 1247],++ (compound exhibited 25-50% inhibition of calcium ion influx induced by capsaicin stimulation)
9,COc1cc(C(=O)Nc2ccnc(Cl)c2)ccc1-c1ncccc1Cl [Compound 1248],+ (compound exhibited 0-25% inhibition of calcium ion influx induced by capsaicin stimulation)
10,COc1cc(C(=O)Nc2cc(C)nc(C)n2)ccc1-c1ncccc1Cl [Compound 1249],+ (compound exhibited 0-25% inhibition of calcium ion influx induced by capsaicin stimulation)
11,COc1cc(C(=O)Nc2ccc3ncccc3c2)ccc1-c1ncccc1Cl [Compound 1250],++++ (compound exhibited 75% or greater inhibition of calcium ion influx induced by capsaicin stimulation)
12,CCn1c2ccccc2c2cc(NC(=O)c3ccc(-c4ccccc4Cl)c(OC)c3)ccc21 [Compound 1251],+ (compound exhibited 0-25% inhibition of calcium ion influx induced by capsaicin stimulation)
13,COc1cc(C(=O)Nc2nccs2)ccc1-c1ncccc1Cl [Compound 1252],+ (compound exhibited 0-25% inhibition of calcium ion influx induced by capsaicin stimulation)
14,COc1cc(C(=O)Nc2ccc3ccccc3c2)ccc1-c1ncccc1Cl [Compound 1253],++++ (compound exhibited 75% or greater inhibition of calcium ion influx induced by capsaicin stimulation)
15,COc1ccc(NC(=O)c2ccc(-c3ncccc3Cl)c(OC)c2)cc1OC [Compound 1257],+ (compound exhibited 0-25% inhibition of calcium ion influx induced by capsaicin stimulation)
16,COc1cc(C(=O)Nc2cccc(C(=O)O)c2)ccc1-c1ncccc1Cl [Compound 1258],+ (compound exhibited 0-25% inhibition of calcium ion influx induced by capsaicin stimulation)
17,COc1cc(C(=O)Nc2ccc(Cl)c(C(=O)O)c2)ccc1-c1ncccc1Cl [Compound 1259],++++ (compound exhibited 75% or greater inhibition of calcium ion influx induced by capsaicin stimulation)
